Where a SMILES comes first, the peptide text is derived from it. Bridges are numbered along the chain shown (N, C = ends).
What was measured:
CRIP1 [1] = target: T1, CRIP1 (Homo sapiens, UniProt P50238); experiment: Saturation binding of FITC-labeled peptides; details: ΔΔG = RT ln K d,A1M − RT ln K d,A1, from apparent dissociation constants
T1 construct: enterokinase cleavage site and vector linker residues (N); made in house; host or cells: E. coli (pHAT10-CRIP1, IPTG induction)
T1 sequence (P50238 1-77): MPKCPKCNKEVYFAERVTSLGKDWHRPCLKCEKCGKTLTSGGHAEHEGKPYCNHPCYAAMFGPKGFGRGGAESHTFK
Description: We computationally redesigned A1 resulting in a peptide with a new sequence (denoted as A1M) predicted to bind to CRIP1 with higher affinity. To test this prediction, A1, B5 and A1M peptides were all synthesized and labeled with FITC for binding studies. Since the peptides encoded by the C7C phage library are at the N-terminus of the minor phage coat protein pIII followed by a short phage encoded spacer Gly-Gly-Gly-Ser, we included this 4-mer in the synthesized peptide. An additional C-terminal Lys was also included in order to enable fluorescent labeling of the peptide. […] We synthesized the cyclic form of the peptides, A1, B5 and A1M and determined their ability to bind CRIP1 using saturation binding experiments. […] To directly compare the affinity of the A1 and A1M peptides for CRIP1 protein, we performed a competitive binding assay and determined the IC50 for each of the peptides using FITC-A1M as the ligand. […]
The binding affinity of the peptides for CRIP1 protein was determined by saturation binding experiments,[55]. […] The fluorescence intensity in each well was determined on Infinite M200 Tecan Instrument (Tecan, NC) (Excitation wavelength: 494 nm, Emission wavelength: 530 nm). The apparent equilibrium dissociation constant, K d,apparent, was calculated by non-linear regression using GraphPad Prism (GraphPad Prism 4.0 Software, San Diego, CA). […]

CRIP1 [2] = target: T1, CRIP1; experiment: Competitive binding assay against FITC-A1M; details: A1M vs A1, competing for FITC-A1M binding, from IC50
Experimental: The binding affinity of the A1 and A1M peptides for CRIP1 protein was directly compared by a competitive binding experiment,[56]. Labeled A1M peptide (FITC-A1M) was competed with increasing concentrations of either unlabeled A1M peptides or A1 peptide and the IC50 for each peptide calculated.
Ninety-six well plates were coated with 150 µl of PBS buffer containing 100 µg/ml of CRIP1 and incubated overnight at 4°C. The wells were then washed 3 times with 50 mM Tris, 150 mM NaCl, pH 7.5 (TBS) containing 0.1% Tween-20 (TBST), and then each well filled completely with blocking buffer (TBS containing 0.5% BSA), incubated at least 1 hour at 4°C, and then rapidly washed 3 times with TBST. Following washing 150 µl of binding buffer containing FITC-A1M peptides of 10 µM and appropriate dilutions of unlabeled A1 and A1M peptides (ranging from 0 to 300 µM) were added to the CRIP1 containing wells and incubated for 1 hour at 37°C with rocking. After incubation, the plates were washed three times with binding buffer. The fluorescence intensity in each well was determined on Infinite M200 Tecan Instrument (Tecan, NC) (Excitation wavelength: 494 nm, Emission wavelength: 530 nm). Ki was calculated by non-linear regression with one binding site using GraphPad Prism (GraphPad Prism 4.0 Software, San Diego, CA). […]

- experimental free energy change ΔΔG (CRIP1 [1]): -1.6 kcal/mol
- binding affinity relative to A1 (fold better) (CRIP1 [2]): approximately 27.5 times
SMILES: CC(C)C[C@@H]1NC(=O)[C@@H](N)CSSC[C@@H](C(=O)NCC(=O)NCC(=O)NCC(=O)N[C@@H](CO)C(=O)N[C@@H](CCCCN)C(N)=O)NC(=O)CNC(=O)[C@H](CCCCN)NC(=O)CNC(=O)CNC(=O)CNC(=O)[C@H](CC(=O)O)NC1=O [A1M] (H-CLDGGGKGCGGGSK-NH2; disulfide 1-9; N-terminus assumed)
